US20220064105A1, “CRYSTALLINE EDG-2 RECEPTOR ANTAGONIST AND METHODS OF MAKING” (Sanofi, priority 2020, published 2022)
Converted amounts (≈) assume the structure as drawn.

How the values were obtained:
[1] = Solubility of Compound I in solvents at room temperature (about 25° C.); type: physicochemical; details: thermodynamic from solid
Method: Compound I was dissolved in a variety of solvents at room temperature (about 25° C.) to provide solutions of Compound I with a maximum concentration of 10 mg/mL. The input material in these experiments was a mixture of polymorphic forms 1, 2, and 3.
The maximum concentration used in this set of experiments was 10 mg/mL. Solubility was highest in THF at >10 mg/mL. […] The solubility was estimated at less than 2 mg/mL for: 1-butanol, butyl acetate, hexane, ethanol, ethyl acetate, isobutyl alcohol, 1-pentanol, isopropanol, acetonitrile, dichloromethane, chloroform, and water.

[2] = Estimated hot solubility in solvents at elevated temperature (approximately solvent boiling point); type: physicochemical; details: thermodynamic from solid, read-out: Hot Solubility (est)
Method: Compound I was dissolved in a variety of solvents at elevated temperature (approximately at solvent boiling point) to provide solutions of Compound I with a maximum concentration of 15 mg/mL. The input material in these experiments was a mixture of polymorphic forms 1, 2, and 3.
When concentrations of Compound I was greater than 2 mg/mL, the solutions were filtered and evaporated at 25° C. to isolate the solid.

[3] = system: mouse model of skin fibrosis; details: cited from earlier work
[4] = system: patients with diffuse cutaneous systemic sclerosis SSc (dcSSc); details: cited from earlier work
[5] = Slurry stability study at room temperature (25° C.), 4 weeks, resulting form by FTIR; type: physicochemical; details: for Final form after slurry: 25° C., 4 weeks, FTIR
Method: Slurry stability Maturation studies were initially conducted for the purpose of identifying the most […] stable form at room temperature (25° C.).
In this set of experiments, both the individual forms and mixtures of forms were slurried in several solvents for 4 weeks, then filtered and analyzed to determine the resulting form. The first set of experiments included pure Form 1, Form 2, Form 3, and mixtures of these forms in equal amounts. The solvents included methanol, ethyl acetate, MEK, and methyl THF in order to investigate a range of solvent polarity. Additional experiments were conducted with a mixture of Form 1 and Form 4 in MEK and methanol.
Analysis was performed by FTIR due to ease of analysis for small quantities. It is interesting to note that the acid carbonyl is shifted to a different location for each polymorph. The results for the first set of experiments are listed below, comparing the starting form with the final form.

[6] = Slurry conversion studies at 40-70° C. with Forms 1 and 2; type: physicochemical
Method: Slurry conversation studies were also conducted at 40-70° C. with Forms 1 and 2 to determine a transition temperature between the forms. A mixture of Form 1 and Form 2 at a (1:1 ratio) was slurried at 40° C., 50° C., 60° C., and 70° C. in two different solvents at each temperature and then analyzed to determine the direction of transformation. At 40° C. and 50° C., Methanol and MEK were used. At 60° C. and 70° C. MEK and 1-Pentanol were used.

[7] = Dynamic vapor sorption (DVS); type: physicochemical; details: 25° C.
Method: Moisture sorption/desorption isotherms are recorded on a DVS-1 from SURFACE MEASUREMENT SYSTEMS. Two cycles are run at 25° C., in which the Relative Humidity (RH) is stepped from 0 to 95% and back to 0%. The data is evaluated with the software DVSWin V. 2.15.

[8] = Physical stability of solid state forms at 80° C./75% RH, by FTIR; type: physicochemical; details: 1 week (7 days), open glass vials
Method: The physical stability of Forms 1, 2, and 3 was investigated at 80° C./75% RH in order to determine if interconversion was observed. The samples were examined by FTIR after stressing 1 week in open glass vials.

[9] = Solubility of polymorphs at pH 7.4 in phosphate buffer at 25° C.; type: physicochemical; details: pH 7.4 phosphate buffer
Method: The solubility of the different polymorphs was determined at pH 7.4 in phosphate buffer at 25° C. Samples were analyzed as a function of time for each form to determine the equilibrium values. The residual solids from each sample were analyzed to verify that the form was unchanged during the experiment. The concentration (mg/mL) versus time data is listed below for each form: […]

COc1ccc(C(=O)NC2(C(=O)O)Cc3ccccc3C2)cc1OCCc1cccc(C)c1 [Compound I, 2-(4-methoxy-3-(3-methylphenethoxy)benzamido)-2,3-dihydro-1H-indene-2-carboxylic acid]
solubility ([1]; organic solvent or mixture, 1-butanol, read-out: Solubility (estimated)): < 2000 µg/mL | solubility ([1]; organic solvent or mixture, 1-pentanol, read-out: Solubility (estimated)): < 2000 µg/mL | solubility ([1]; organic solvent or mixture, MEK, read-out: Solubility): 4000 to 6000 µg/mL (≈ 8.98 to 13.5 mM) | solubility ([1]; organic solvent or mixture, THF, read-out: Solubility): > 10000 µg/mL | solubility ([1]; organic solvent or mixture, acetone, read-out: Solubility): 4000 to 6000 µg/mL (≈ 8.98 to 13.5 mM) | solubility ([1]; organic solvent or mixture, acetonitrile, read-out: Solubility (estimated)): < 2000 µg/mL | solubility ([1]; organic solvent or mixture, butyl acetate, read-out: Solubility (estimated)): < 2000 µg/mL | solubility ([1]; organic solvent or mixture, chloroform, read-out: Solubility (estimated)): < 2000 µg/mL | solubility ([1]; organic solvent or mixture, dichloromethane, read-out: Solubility (estimated)): < 2000 µg/mL | solubility ([1]; organic solvent or mixture, ethanol, read-out: Solubility (estimated)): < 2000 µg/mL | solubility ([1]; organic solvent or mixture, ethyl acetate, read-out: Solubility (estimated)): < 2000 µg/mL | solubility ([1]; organic solvent or mixture, hexane, read-out: Solubility (estimated)): < 2000 µg/mL | solubility ([1]; organic solvent or mixture, isobutyl alcohol, read-out: Solubility (estimated)): < 2000 µg/mL | solubility ([1]; organic solvent or mixture, isopropanol, read-out: Solubility (estimated)): < 2000 µg/mL | solubility ([1]; organic solvent or mixture, methanol, read-out: Solubility): 2000 to 3000 µg/mL (≈ 4.49 to 6.73 mM) | solubility ([1]; water, read-out: Solubility (estimated)): < 2000 µg/mL | solubility ([2]; 40 °C, organic solvent or mixture, Dichloromethane (DCM)): < 4000 µg/mL | solubility ([2]; 56 °C, organic solvent or mixture, Acetone): > 10000 µg/mL | solubility ([2]; 61 °C, organic solvent or mixture, Chloroform): 4000 to 5000 µg/mL (≈ 8.98 to 11.2 mM) | solubility ([2]; 65 °C, organic solvent or mixture, Methanol): > 10000 µg/mL | solubility ([2]; 69 °C, organic solvent or mixture, Hexane): < 2000 µg/mL | solubility ([2]; 77 °C, organic solvent or mixture, Ethyl Acetate): 5000 to 10000 µg/mL (≈ 11.2 to 22.4 mM) | solubility ([2]; 78 °C, organic solvent or mixture, Ethanol): > 10000 µg/mL | solubility ([2]; 80 °C, organic solvent or mixture, Methyl Ethyl Ketone (MEK)): > 15000 µg/mL | solubility ([2]; 82 °C, organic solvent or mixture, 2-Propanol): 7000 to 10000 µg/mL (≈ 15.7 to 22.4 mM) | solubility ([2]; 82 °C, organic solvent or mixture, Acetonitrile): 7000 to 10000 µg/mL (≈ 15.7 to 22.4 mM) | solubility ([2]; 100 °C, Water): < 2000 µg/mL | solubility ([2]; 108 °C, organic solvent or mixture, Isobutyl Alcohol): > 10000 µg/mL | solubility ([2]; 118 °C, organic solvent or mixture, 1-Butanol): > 10000 µg/mL | solubility ([2]; 126 °C, organic solvent or mixture, Butyl Acetate): ~10000 µg/mL (≈ 22.4 mM) | solubility ([2]; 138 °C, organic solvent or mixture, 1-Pentanol): > 10000 µg/mL | Collagen content [3]: reduced collagen content | Dermal thickening [3]: reversed dermal thickening | Myofibroblast differentiation [3]: significantly inhibited myofibroblast differentiation | Outcome measures [4]: improved outcome measures | Target engagement [4]: demonstrated target engagement | Tolerability [4]: well tolerated

COc1ccc(C(=O)NC2(C(=O)O)Cc3ccccc3C2)cc1OCCc1cccc(C)c1 [Form 1, 2-(4-methoxy-3-(3-methylphenethoxy)benzamido)-2,3-dihydro-1H-indene-2-carboxylic acid]
Relative stability of the crystal forms ([5]; room temperature (25° C.), from slurry data set): most stable form | Final form after slurry ([5]; slurried in MEK): Form 1 | Final form after slurry ([5]; slurried in ethyl acetate): Form 1 | Final form after slurry ([5]; slurried in methanol): Form 1 | Final form after slurry ([5]; slurried in methyl THF): Form 1 | Resulting form after slurry ([6]; slurried in 1-pentanol at 60° C.): converts to crystalline Form 2 | Resulting form after slurry ([6]; slurried in 1-pentanol at 70° C.): converts to crystalline Form 2 | Resulting form after slurry ([6]; slurried in MEK at 60° C.): converts to crystalline Form 2 | Resulting form after slurry ([6]; slurried in MEK at 70° C.): converts to crystalline Form 2 | Reversible water uptake [7]: less than 1% | Change in FTIR spectrum after storage [8]: unchanged FTIR | Concentration (solubility) ([9]; 1 hr): 42 µg/mL | Concentration (solubility) ([9]; 2 hr): 41 µg/mL | Concentration (solubility) ([9]; 3 hr): 42 µg/mL | Concentration (equilibrium solubility) ([9]; 24 hr): 42 µg/mL
